{
  "source": "patent US20120220546A1",
  "about": "“COMPOSTIONS DESIGNED FOR THE INHIBITION AND/OR BLOCKING OF THE EPITHELIAL/MESENCHYMAL TRANSITION” (priority 2009, published 2012)",
  "tested_on": "zebrafish embryos",
  "assay": "Zebrafish embryo model of EMT inhibition",
  "assay_type": "in vivo",
  "conditions": "100 μM DAPT dissolved in the medium, 32-hpf embryos",
  "protocol": "The necessary embryos to develop the study were obtained and kept at 28.5° C. in the incubator until the treatment was to begin (24 hpf and 32 hpf). The embryos were dechorionated at 24 hpf and deposited on a Petri dish with E3 medium. Prior to injecting the product, the fish were treated with 0.04% tricaine and, once they were asleep, they were placed on an agarose plate with a number of wedge-shaped grooves, where the embryos were aligned and immobilised in order to be injected. The mixture of the assay product to be injected was loaded in the injection capillary and a volume of 15 nl was injected in the perivitelline space. 20 embryos were injected per condition. […] These were deposited in 24-well plates (5 embryos per well) in 0.5 ml of E3 medium without methylene blue or antibiotic, and incubated at 28.5° C. until they were to be analyzed. As a control, embryos were injected with HBSS +0.5% rhodamine-dextran. […]\nThe embryos were analyzed at 53, 72 and 96 hpf, and the presence of the following phenotypes was searched for in each of the embryos used in the study: • alteration of the somite bonds (somite boundaries). • morphological alterations of the embryos in general. • appearance of edemas in the pericardial area. • morphological alterations in the heart, as well as alterations in blood circulation and alterations in the formation of the vascular system.",
  "data": [
    {"smiles": "C[C@H](NC(=O)Cc1cc(F)cc(F)c1)C(=O)N[C@H](C(=O)OC(C)(C)C)c1ccccc1", "note": "[DAPT]", "values": [
      {"measurement": "phenotype of positive control", "value": "appearance of pericardial edemas, alterations of the somite bonds, and alteration or absence of blood circulation"}
    ]}
  ]
}
